According to patent US11519901B2, “Method for screening for cancer therapeutic agent” (THE UNIVERSITY OF TOKYO, priority 2015, dated 2022):
Read-outs that look alike come from different tables or passages of the source.

Columns and labels:
[1] = system: EGFR mutated lung cancer cell line HCC827; experiment: PODXL expression by RT-PCR in HCC827 introduced with reprogramming factor (4F); type: cell-based, human; settings: 4F-introduced HCC827, treated with IC50 concentration of drug
Experimental: (§1) In FIG. 2, FIG. 2A is a schematic drawing describing a method of introducing reprogramming factor, MYOD1 or GFP and siRNA into MP-CCS-SY cell line. […] FIG. 2C is a schematic drawing describing introduction of a reprogramming factor into HCC827 or SK-BR3 cell line and a method of addition of each medicament.
(§2) RT-PCR was performed using the following method. Using RNeasy Plus Mini kit (Qiagen, Hilden, Germany), the total RNA was isolated. Using Go-taq qPCR Master Mix (Promega, Madison, USA), quantitative real-time PCR analysis was performed. The transcription level was standardized based on β-actin or GAPDH value.
(§3) Besides the above, an influence of the activation of oncogene signal on cell reprogramming was examined. Epithelial growth factor receptor (EGFR) mutated lung cancer cell line HCC827 and HER2-amplified breast cancer cell line SK-BR3 were used for the experiment. These cancer cell lines are sensitive to EGFR specific tyrosine kinase and HER2 tyrosine kinase inhibitor, respectively. […] Change of gene expression with or without introduction of 4F into HCC827 and SK-BR3 was examined by microarray analysis.

HCC827 cell line = settings: HCC827, Dox(4F)+, two days
Experimental: as §2
(§4) Using a combination of a cancer cell sensitive to a certain kind of anticancer agent and a cancer cell not sensitive to a certain kind of anticancer agent, an influence of a drug-specific cell on the reprogramming was examined. […] Two days later, RNA was extracted from the cells, and the expression levels of NANOG and GDF3 were measured by quantitative RT-PCR (FIG. 5A).

[2] = system: HER2-amplified breast cancer cell line SK-BR3; experiment: PODXL expression by RT-PCR in SK-BR3 introduced with reprogramming factor (4F); type: cell-based, human; settings: 4F-introduced SK-BR3, treated with IC50 concentration of drug
Experimental: as §1, §2, §3

[3] = system: HER2-amplified breast cancer cell line SK-BR3; settings: stated as known; cited from earlier work
SK-BR3 cell line [4] = experiment: NANOG and GDF3 expression by quantitative RT-PCR in 4F-induced SK-BR3; type: cell-based, human; settings: SK-BR3, Dox(4F)+, two days
Experimental: as §2, §4

SK-BR3 cell line [5] = experiment: Microarray analysis of gene expression change with or without 4F in SK-BR3; type: cell-based, human; settings: SK-BR3 with or without 4F introduction
From the text: as §1, §3

[6] = system: EGFR mutation lung cancer cell line HCC827; settings: stated as known; cited from earlier work
[7] = Imatinib 1 or 10 μM, 5-FU 10 or 50 μM (FIG. 5B legend)

| SMILES | PODXL expression [1] | expression of GDF3 (HCC827 cell line; [7]) | expression of NANOG (HCC827 cell line; [7]) | expression of reprogramming marker PODXL [2] | expression of GDF3 (HCC827 cell line; 0.5 μM) | expression of NANOG (HCC827 cell line; 0.5 μM) | sensitivity of cell line to drug [3] | expression of GDF3 (SK-BR3 cell line [4]; 0.05 μM) | expression of NANOG (SK-BR3 cell line [4]; 0.05 μM) | expression of GDF3 (SK-BR3 cell line [4]; 0.5 μM) | expression of NANOG (SK-BR3 cell line [4]; 0.5 μM) | change of gene expression (many genes including PODXL and NANOG), microarray (SK-BR3 cell line [5]) | sensitivity of cell line to drug [6] |
| --- | --- | --- | --- | --- | --- | --- | --- | --- | --- | --- | --- | --- | --- |
| O=c1[nH]cc(F)c(=O)[nH]1 [5FU, 5-fluorouracil] | did not increase | did not promote | did not promote | did not increase | – | – | – | – | – | – | – | – | – |
| CS(=O)(=O)CCNCc1ccc(-c2ccc3ncnc(Nc4ccc(OCc5cccc(F)c5)c(Cl)c4)c3c2)o1 [lapatinib] | – | – | – | promoted | promoted | promoted | sensitive | promoted | promoted | promoted | promoted | upregulated or downregulated | sensitive |
